According to PMC10759609, “A novel PDPN antagonist peptide CY12-RP2 inhibits melanoma growth via Wnt/β-catenin and modulates the immune cells” (Journal of Experimental & Clinical Cancer Research : CR, 2024):
Peptide text beside a SMILES is read from it.

Key:
[1] = In vivo biodistribution (His-ELISA); set-up: species or system BALB/c nude mice; settings: His-CY12-RP2, 25 and 100 mg/kg, tail vein
Description: In vivo biodistribution assay was conducted in BALB/c nude mice with melanoma tumor. Here we prepared 15 female BALB/c mice with subcutaneous melanoma tumor, and divided into three groups with each group of five. Mice were treated with His-CY12-RP2 by tail vein administration at various doses (25 mg/kg and 100 mg/kg). We collected at least 50 μL orbital blood samples by using capillary blood vessels at 6 h, 12 h, 24 h, 36 h, and 48 h, respectively. Five mice were used for the study of in vivo biodistribution of peptide. The organs including heart, liver, spleen, lung and kidney were collected after BALB/c nude mice were sacrificed at 48 h. The biodistribution of CY12-RP2 in blood and organs were measured using an ELISA kit (Shenzhen Ziker Biological Technology, Shenzhen, China) following the kit’s instructions.
Fig. S4: The inhibition of cells metastasis and invasion by CY12-RP2 can be […]
(A, B) The inhibition of CY12-RP2 on the migration capacity of melanoma cell lines was reversed by SKL2001 (A). Statistical analysis was performed to determine the migrated distance (B). The power field scale bar, 100 μm. (C, D) Effect of CY12-RP2 on the invasive ability of melanoma cell lines were reversed by SKL2001 (C).
Statistical analysis was performed to count the invaded cells (D). The power field scale bar, 100 μm. (E) Western blot assay was also performed to detect the proteins related to EMT and Wnt/β-catenin signaling pathway, including N-cadherin, Vimentin, snail, Dvl2, Phospho-β-catenin-S675, β-catenin, Phospho-GSK3β-Ser9 and GSK3β by CY12-RP2 with or without SKL2001 (50 μM). Data are presented as mean ± SD. *p < […]
(A) TUNEL analysis of apoptosis was conducted on orthotopic xenografts tumor sections using fluorescence staining. […] (B) Fluorescence staining of Ki67 was carried out on orthotopic xenograft tumor sections.
The power field scale bar, 100 μm. (C) Serum His-CY12-RP2 levels of the orthotopic xenografts mice treated by various dosage of CY12-RP2 were measured by His-ELISA kit. […]
kit. (E) Serum ALT, AST, TG, and γ-GT levels of the orthotopic xenografts model were measured by ELISA. […]

[2] = test system: 3D melanoma spheroid (A375); test: 3D melanoma spheroid / PBMC co-culture; type: cell-based; settings: 0, 2, 10, 50 μM, with increasing concentrations
Description: Prepared melanoma cells spheroids were plated in 48-well plates. Following incubation for 3 days, the spheroids were exposed to different concentrations (0, 50, 100 and 200 μM) of CY12-RP2, and changes in spheroid diameter were detected after 5 days of treatment. Additionally, melanoma cell spheroids were treated with various concentrations of CY12-RP2 as described previously, and after 72 h, the spheroids were stained for immunofluorescence with caspase 3 primary antibody. The specific experimental procedures refer to the following immunofluorescence analysis. Additionally, we co-cultured peptide-stimulated PBMC with spheroids to determine the tumor-killing ability of activated PBMC.
Fig. 6 Influence of CY12-RP2 on the immune-mediated anti-tumor capacity of PBMC in vitro and in vivo. A The procedure of PBMC isolation from donor peripheral blood, and the ratio of different immune cells in PBMC was assayed by flow cytometry. B PBMCs were stimulated with CY12-RP2 for 48 h, and the cytokine levels in the supernatant were assayed by ELISA. […] E Brightfield and fluorescent microscopy images of A375 cells (red) co-culture with PBMC (GFP) were stimulated with various concentrations (0, 2, 10, 50 μM) of CY12-RP2. Data are presented as mean ± SD. *p < 0.05, **p < 0.01, ***p < 0.001 versus control

[3] = test system: B16F10-Luc melanoma allograft; type: in vivo, BALB/c mice; murine melanoma cell line; settings: 100 mg/kg, tail vein, every other day for 15 days
Description: Tumorigenesis assays were conducted in vivo using BALB/c nude mice and BALB/c mice from Guangdong Medical Laboratory Animal Center. The animal study was reviewed and approved by the Administrative Committee on Animal Research of Shenzhen International Graduate School, Tsinghua University (Ethical Development No. 16, 10 November 2021). Samples with 5 × 10^5 A375 or B16F10-Luc melanoma cells were diluted in 100 μL PBS and injected subcutaneously into 6- to 8-week-old female BALB/c nude mice or BALB/c mice. 5 days later, the mice were treated with CY12-RP2 by tail vein administration at various doses (25 mg/kg and 100 mg/kg) every two days. The tumor volume and body weight were measured every 2 days, with the calculation of the tumor volume under the assumption of an ellipsoidal tumor as: tumor volume = length × width^2/2. Tumors from BALB/c nude mice were collected and photographed on day 21, while tumors from the allograft mouse model were measured using bioluminescence imaging. The blood collected from the eyes of BALB/c nude mice were stored at 4 °C for 24 h and then centrifuged for 15 min under the indicated conditions (4 °C, 3000 rpm). The supernatant was collected and assayed for drug toxicity using kits, including AST, ALT, TG, and γ-GT. […]

A375 cells = test: Transwell matrigel invasion, A375; type: cell-based; settings: transwell matrigel, 0, 5, 25 μM, 48 h
Description: For invasion assay, matrigel (Corning, New York, USA) was coated on the upper surface of the upper chamber. The upper chamber was filled with DMEM medium containing 2% FBS, while the lower chamber contained a medium supplemented with 20% FBS. In brief, melanoma cells (A375 GFP, A875 GFP, A375 PDPN^−/−, and A875 PDPN^+/+ cells) were seeded in the upper chamber of the transwell plate (Corning, New York, USA) at about 5 × 10^4 cells/well with the medium as described above. For peptide functionality experiments, A375 and A875 cells were seeded in the upper chamber of the transwell plate at a density of 5 × 10^4 cells/well with various peptide concentrations (0 μM, 5 μM, 25 μM). Transwell inserts were fixed using 4% paraformaldehyde after 48 h cell invasion, and crystalline violet was used for staining. The quantities of invading cells were quantified using ImageJ software (NIH).

For `CC(C)C[C@H](NC(=O)[C@H](Cc1ccc(O)cc1)NC(=O)[C@@H](N)[C@@H](C)O)C(=O)N[C@@H](CS)C(=O)N[C@H](C(=O)N[C@@H](C)C(=O)N[C@@H](CS)C(=O)N[C@@H](CC(=O)O)C(=O)N[C@@H](Cc1ccc(O)cc1)C(=O)N[C@H](C(=O)N[C@@H](Cc1c[nH]cn1)C(=O)N[C@@H](Cc1c[nH]cn1)C(=O)O)[C@@H](C)O)[C@@H](C)O` [CY12-RP2] (H-TYLCTACDYTHH-OH; N-terminus and C-terminus assumed), the “serum level after peak” value ([1]; serum, 6-48 h) was “moderately decreased progressively with time”, the “time of peak serum level” value ([1]; serum, sampled 6, 12, 24, 36, 48 h) was 6 h and the organ distribution ([1]; tumor vs heart, liver, spleen, lung, kidney at 48 h) was “significant ability to target tumors compared to other organs”. For the same compound, the “tumor-killing capacity of PBMC” value [2] was “increased”, the tumor volume [3] was “noticeably decreased” and the “tumor growth (bioluminescence imaging)” value ([3]; vs control) was “significantly decreased tumor growth”. For the same compound, the invasion (A375 cells) was “significantly suppressed the invasion of A375 cells in a dose-dependent manner”.
